For assay [1], the system named is NFkB cellular signaling pathway. Briefly: NFkB pathway activity prediction, Bayesian network model (evidence curated list), THP-1 monocytic cells. Type of assay: cell-based, human. The note with it: THP-1 cells treated with CoQ10 and stimulated with LPS (group 3). The text has this: (§1) Herein, an exemplary Bayesian network model as shown in FIG. 2 was first used to model the transcriptional program of the NFkB cellular signaling pathway in a simple manner. The model consists of three types of nodes: (a) a transcription factor (TF) element (with states “absent” and “present”) in a first layer 1; (b) target genes TG1, TG2, TGn (with states “down” and “up”) in a second layer 2, and; (c) measurement nodes linked to the expression levels of the target genes in a third layer 3. These can be microarray probesets PS1,1, PS1,2, PS1,3, PS2,1, PSn,1, PSn,m (with states “low” and “high”), as preferably used herein, but could also be other gene expression measurements such as RNAseq or RT-qPCR.
A suitable implementation of the mathematical model, herein, the exemplary Bayesian network model, is based on microarray data. The model describes (i) how the expression levels of the target genes depend on the activation of the TF element, and (ii) how probeset intensities, in turn, depend on the expression levels of the respective target genes. For the latter, probeset intensities may be taken from fRMA pre-processed Affymetrix HG-U133Plus2.0 microarrays, which are widely available from the Gene Expression Omnibus (GEO, www.ncbi.nlm.nih.gov/geo) and ArrayExpress (www.ebi.ac.uk/arrayexpress). […]

Assay [2] shares this test system. Conditions: reported in literature (Schmelzer and Döring 2010), human THP-1 monocytes; cited from earlier work.
Assay [3] has the same test system. Nature of the assay: NFkB pathway activity prediction, linear model (evidence curated list), NHBE samples from E-MTAB-1312 stimulated with TNFα. The format is cell-based, human. Conditions: NHBE cells. From the text: Further to the exemplary Bayesian network model described above, an exemplary linear model was used to model the transcriptional program of the NFkB cellular signaling pathway in a simple manner. The structure of the model corresponded to the one shown in FIG. 3 of the published international patent application WO 2014/102668 A2 (“Assessment of cellular signaling pathway activity using linear combination(s) of target gene expressions”). More specifically, the exemplary linear model consisted of a TF node, a layer of target gene expression and a layer of mRNA expression levels and made use of continuous expression data, all target genes from the evidence curated list of target genes (see Table 3) with all probesets included and without the use of a pseudocount.
In the diagram, the vertical axis indicates the activity score, wherein positive values correspond to an active NFkB cellular signaling pathway and negative values correspond to a passive NFkB cellular signaling pathway. NHBE cell lines were unstimulated or stimulated with different TNFα concentrations for different timings. All unstimulated healthy cells (groups 1 to 4) are correctly predicted to have a passive NFkB cellular signaling pathway. […]

Assay [4] shares this test system. Briefly: NFkB pathway activity prediction, Bayesian network model (broad literature list), NHBE samples from E-MTAB-1312 stimulated with TNFα. The format is cell-based, human. Conditions: NHBE cells. The text has this:
The list of target genes of the NFkB cellular signaling pathway constructed based on literature evidence following the procedure as described herein (“evidence curated list of target genes”, see Table 3) is compared here with a “broad literature list” of putative target genes of the NFkB cellular signaling pathway constructed not following above mentioned procedure. The alternative list is a compilation of genes attributed to responding to activity of the NFkB cellular signaling pathway provided within Thomson-Reuters's Metacore (last accessed Sep. 6, 2013). This database was queried for genes that are transcriptionally regulated directly downstream of the family of NFkB proteins, i.e., NFKB1 or p50/p105, NFKB2 or p52/p100, RELA or p65, REL, and RELB. […] A further selection was made based on the number of publication references supporting the attributed transcriptional regulation of the respective gene by the NFkB family. Genes that had ten or more references were selected for the broad literature list. In other words, no manual curation of the references and no calculation of an evidence score based on the experimental evidence was performed. […] The expression of the genes was measured by 56 probesets on the Affymetrix HG-U133Plus2.0 microarray platform which were selected using the Bioconductor plugin of R and one manually added probeset for DEFB4A, see Table 7. […]

Assay [5] has the same test system. Nature of the assay: NFkB pathway activity prediction, Bayesian network model (evidence curated list, 19, 13 and 7 target genes shortlists), NHBE samples from E-MTAB-1312 stimulated with TNFα. The format is cell-based, human. The note with it: NHBE cells.
Excerpt: as §1
A suitable implementation of the mathematical model, herein, the exemplary Bayesian network model, is based on microarray data. The model describes (i) how the expression levels of the target genes depend on the activation of the TF element, and (ii) how probeset intensities, in turn, depend on the expression levels of the respective target genes. For the latter, probeset intensities may be taken from fRMA pre-processed Affymetrix HG-U133Plus2.0 microarrays, which are widely available from the Gene Expression Omnibus (GEO, www.ncbi.nlm.nih.gov/geo) and ArrayExpress (www.ebi.ac.uk/arrayexpress).
Once the exemplary Bayesian network model is built and calibrated (see below), the model can be used on microarray data of a new sample by entering the probeset measurements as observations in the third layer 3, and inferring backwards in the model what the probability must have been for the TF element to be “present”. Here, “present” is considered to be the phenomenon that the TF element is bound to the DNA and is controlling transcription of the cellular signaling pathway's target genes, and “absent” the case that the TF element is not controlling transcription. […]

[6] abbreviates: 0.5 h stimulation, all TNFα concentrations (groups 5, 9, 13).

For the molecule `COC1=C(OC)C(=O)C(C/C=C(\C)CC/C=C(\C)CC/C=C(\C)CC/C=C(\C)CC/C=C(\C)CC/C=C(\C)CC/C=C(\C)CC/C=C(\C)CC/C=C(\C)CCC=C(C)C)=C(C)C1=O` [CoQ10, Coenzyme Q10], the “predicted NFkB cellular signaling pathway activity” value in assay [1] is recorded as “high predicted NFkB cellular signaling pathway activities”. In addition, the “effect on NFkB cellular signaling pathway activity” value in assay [2] is reported as “limited”.
Turning to TNFα, the “predicted NFkB cellular signaling pathway activity score” value in assay [3] (setting [6]) is listed as “too short for the NFkB cellular signaling pathway to become active”; in assay [3] (stimulation times of 2 to 24 hours), “resulted in an active NFkB cellular signaling pathway”. The “predicted NFkB cellular signaling pathway activity” value is “too short for the NFkB cellular signaling pathway to become active” in assay [4] (setting [6]); “resulted in an active NFkB cellular signaling pathway” in assay [4] (stimulation times of 2-24 hours); “full-blown NFkB cellular signaling pathway activity” in assay [5] (2 and 4 hour stimulation, all concentrations tested); “too short for the NFkB cellular signaling pathway to become active” in assay [5] (0.5 h stimulation, low/medium/high TNFα (groups 5, 9, 13)); “appears to lower the NFkB cellular signaling pathway activity” in assay [5] (24 hours stimulation (groups 8, 12, 16)).

The values above are taken from patent US11450409B2, “Determination of NFkB pathway activity using unique combination of target genes” (InnoSIGN B.V., priority 2015, dated 2022).
